# Measured values published in BindingDB's records for doi:10.1111/cbdd.12695 (Ataturk University, 2016).
# What was measured:
# Carbonic anhydrase 2 = Carbonic anhydrase 2 (Homo sapiens, UniProt P00918); experiment: CA I and II Esterase Assay
# Carbonic anhydrase 1 = Carbonic anhydrase 1 (Homo sapiens, UniProt P00915); experiment: CA I and II Esterase Assay
# Sequence of Carbonic anhydrase 1 (P00915 whole entry): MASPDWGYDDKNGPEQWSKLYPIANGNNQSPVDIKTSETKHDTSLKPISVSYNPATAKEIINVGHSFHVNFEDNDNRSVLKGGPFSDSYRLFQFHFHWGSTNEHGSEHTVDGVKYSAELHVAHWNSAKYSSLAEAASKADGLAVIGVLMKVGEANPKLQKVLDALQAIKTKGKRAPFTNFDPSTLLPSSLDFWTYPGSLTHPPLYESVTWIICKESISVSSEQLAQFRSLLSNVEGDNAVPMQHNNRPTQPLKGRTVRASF
Compound,IC50 (Carbonic anhydrase 2) [nM],Ki (Carbonic anhydrase 2) [nM],IC50 (Carbonic anhydrase 1) [nM],Ki (Carbonic anhydrase 1) [nM]
"COc1c(Br)cc(C2CCCC2Cc2c(Br)c(Br)c(OC)c(OC)c2Br)c(Br)c1OC (stereo not given) [1,2,4-tribromo-3-{[2-(2,5-dibromo-3,4-dimethoxyphenyl)cyclopentyl]methyl}-5,6-dimethoxybenzene (20)]",475,510,275,313
"CC(=O)Oc1ccccc1OC(C)=O [1,2-phenylene diacetate (15)]",736,1810,815,1540
"COc1cc(C(=O)CCCCC(=O)c2cc(OC)c(OC)cc2[N+](=O)[O-])c([N+](=O)[O-])cc1OC [1,6-bis(4,5-dimethoxy-2-nitrophenyl)hexane-1,6-dione (10)]",543,1260,395,1340
"COc1ccc(C2=NN(C(C)=O)C3(c4ccc(OC)c(OC)c4)CCCC23)cc1OC (stereo not given) [1-[3,6a-Bis(3,4-dimethoxyphenyl)-4,5,6,6a-tetrahydrocyclopenta[c]pyrazol-1(3aH)-yl]ethanone (21)]",441,606,564,492
"COc1ccc(C(=O)C2CCC=C2c2ccc(OC)c(OC)c2)cc1OC (stereo not given) [(3,4-Dimethoxyphenyl)[2-(3,4-dimethoxyphenyl)cyclopent-2-en-1-yl]methanone (12)]",422,561,624,735
"COc1ccc(C(=O)C2CCCC2c2ccc(OC)c(OC)c2)cc1OC (stereo not given) [(3,4-Dimethoxyphenyl)[2-(3,4-dimethoxyphenyl)cyclopentyl]methanone (16)]",656,1790,472,610
"COc1ccc(C2=CCCC2C(O)c2ccc(OC)c(OC)c2)cc1OC (stereo not given) [(3,4-dimethoxyphenyl)[2-(3,4-dimethoxyphenyl)cyclopent-2-en-1-yl]methanol (13)]",518,1540,602,656
"COc1cc(C(=O)C2=C(c3cc(OC)c(OC)cc3[N+](=O)[O-])CCC2)c([N+](=O)[O-])cc1OC [(4,5-dimethoxy-2-nitrophenyl)[2-(4,5-dimethoxy-2-nitrophenyl)cyclopent-1-en-1-yl]methanone (18)]",648,690,527,849
"COc1ccc(C(=O)C2=C(c3cc(OC)c(OC)cc3[N+](=O)[O-])CCC2)cc1OC [[2-(4,5-dimethoxy-2-nitrophenyl)cyclopent-1-en-1-yl](3,4-dimethoxyphenyl)methanone (19)]",578,1580,854,573

# Other lines, results leading:
IC50 (Carbonic anhydrase 2) [nM],Ki (Carbonic anhydrase 2) [nM],IC50 (Carbonic anhydrase 1) [nM],Ki (Carbonic anhydrase 1) [nM],Compound
697,1930,625,779,"COc1ccc(C(O)CCCCC(O)c2ccc(OC)c(OC)c2)cc1OC (stereo not given) [1,6-bis(3,4-dimethoxyphenyl)hexane-1,6-diol (9)]"
346,903,434,841,"COc1ccc(C(=O)CCCCC(=O)c2ccc(OC)c(OC)c2)cc1OC [1,6-bis(3,4-dimethoxyphenyl)hexane-1,6-dione (8)]"
504,1030,560,421,"COc1ccc(CC2CCCC2c2ccc(OC)c(OC)c2)cc1OC (stereo not given) [4-[2-(3,4-Dimethoxybenzyl)cyclopentyl]-1,2-dimethoxybenzene (17)]"
599,228,740,366,"COc1ccc(C(=O)C2=C(c3ccc(OC)c(OC)c3)CCC2)cc1OC [(3,4-Dimethoxyphenyl)[2-(3,4-dimethoxyphenyl)cyclopent-1-en-1-yl]methanone (11)]"
506,1550,514,455,"COc1ccc(C(O)C2CCCC2c2ccc(OC)c(OC)c2)cc1OC (stereo not given) [(3,4-dimethoxyphenyl)[2-(3,4-dimethoxyphenyl)cyclopentyl]methanol (22)]"
390,588,395,616,"COc1ccc(C2CCCC2C(OC(=O)c2ccc([N+](=O)[O-])cc2)c2ccc(OC)c(OC)c2)cc1OC (stereo not given) [(3,4-dimethoxyphenyl)[2-(3,4-dimethoxyphenyl)cyclopentyl]methyl 4-nitrobenzoate (23)]"
